Results: patent US11059815B2, “Synthesis of small molecule histone deacetylase 6 degraders, compounds formed thereby, and pharmaceutical compositions containing them” (Wisconsin Alumni Research Foundation, priority 2018, dated 2021)

Legend:
HDAC6 and related genes = experiment: qRT-PCR of mRNA level of HDAC6 and related genes; type: cell-based, human; details: 6 h treatment
Description: To support the involvement of ubiquitination-proteasome system for the decrease of HDAC6 protein level, the degrader was co-treated with binding competitors or pathway blockers. […] Moreover, it also confirmed the role of the pomalidomide moiety in modulating IKZFs. […] Additionally, proteasome inhibitor MG132 and Bortezomib were used to block the down-stream proteasome degradation. […] Acetylated tubulin level was suppressed as well. This confirms that HDAC6 degradation is responsible for the acetylation of its substrates rather than inhibition by the “warhead” moiety. To exclude the possible transcriptional impact by degraders, qRT-PCR was used to examine the mRNA level of HDAC6 and related genes (data not shown). […] This is consistent with the hypothesis that the cellular knockdown of HDAC6 is due to direct protein degradation, not by transcriptional downregulation.
After treatment, cells were harvested and washed with cold PBS twice. […] The concentration of RNA was measured by Plate Reader. […] Ct value at automatically selected threshold was reported and calculated by 2^−ΔΔCt method. (Livak, K. J.; Schmittgen, T. D. “Analysis of Relative Gene Expression Data Using Real-Time Quantitative PCR and the 2 C T Method” METHODS 2001, 25, 402-408. The bar graph was generated and by GraphPad Prism.

HDAC1 = biological target: T1, HDAC1 (Homo sapiens, UniProt Q13547); experiment: Western blot of HDAC1 in MM1S cells (time course); type: cell-based; details: 100 nM
T1 construct: endogenous in cells; host or cells: MM1S
T1 sequence (Q13547 whole entry): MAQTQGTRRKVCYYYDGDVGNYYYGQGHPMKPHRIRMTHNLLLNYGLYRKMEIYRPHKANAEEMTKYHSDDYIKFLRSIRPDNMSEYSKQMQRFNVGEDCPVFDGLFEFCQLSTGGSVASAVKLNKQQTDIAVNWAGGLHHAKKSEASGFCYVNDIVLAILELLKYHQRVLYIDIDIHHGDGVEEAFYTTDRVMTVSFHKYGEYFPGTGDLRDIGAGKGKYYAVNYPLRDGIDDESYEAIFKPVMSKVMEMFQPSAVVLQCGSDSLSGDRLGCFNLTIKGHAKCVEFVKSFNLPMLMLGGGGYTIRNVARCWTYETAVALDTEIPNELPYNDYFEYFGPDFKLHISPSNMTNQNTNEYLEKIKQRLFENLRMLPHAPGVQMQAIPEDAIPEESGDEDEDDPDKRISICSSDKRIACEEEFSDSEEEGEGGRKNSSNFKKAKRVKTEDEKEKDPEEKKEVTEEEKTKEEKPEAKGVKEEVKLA
Method: FIGS. 12A, 12B, and 12C are a series of western blots showing that degrader 12d selectively promotes HDAC6 degradation in MM1S cells.
To probe the efficiency of 12d, MM1S was treated with 100 nM 12d and the change of HDAC6 protein level was monitored by time. The HDAC6 degradation started around 1 h and reached maximal degradation effect at 4 h. The degradation of IKZFs was only observed after 4 h. Meanwhile, HDAC1 was not affected and the acetylation of tubulin was accumulated by time. To study the re-synthesis rate of HDAC6 after degradation, “wash-out” experiments were performed (data not shown). Cells were treated with 100 nM 12d for 6 h and then washed with PBS to remove remaining degraders. HDAC6 expression was monitored for 48 h. […] Selected degraders were also tested in other cell lines and they are effective among all tested cancer cell lines.
When the cells reached 90% confluence, they were harvested and plated 1×10^6 cells per well in 6-well plate. After overnight seeding, the cells were treated with a solution of compounds or vehicle in culture medium. […] Protein concentration was measured by using the Pierce BCA protein assay (Thermo Fisher Scientific). […] The Immunoblot was generated by ChemiDoc MP Imaging Systems (Bio-Rad) and analyzed by Image J software (only available for download online at https://imagej.net/Downloads). […]

- effect on HDAC1 (HDAC1): not affected
Compound: CCCCN(Cc1ccc(C(=O)NO)cc1)C(=O)Nc1ccc(OCCCCCn2cc(CNc3cccc4c3C(=O)N(C3CCC(=O)NC3=O)C4=O)nn2)cc1 (centres unmarked) [Compound 12d, 4-((1-butyl-3-(4-((5-(4-(((2-(2,6-dioxopiperidin-3-yl)-1,3-dioxoisoindolin-4-yl)amino)methyl)-1H-1,2,3-triazol-1-yl)pentyl)oxy)phenyl)ureido)methyl)-N-hydroxybenzamide]
- effect on mRNA level of HDACs and IKZFs (HDAC6 and related genes): Little to no effects
